# How the values were obtained:
# [1] = target: T1, mouse group 1B PLA2 (mps PLA2) (Mus musculus, UniProt Q9Z0Y2); assay: Example 8 fluorimetric PLA2 inhibition assay (PPyrPM), mouse enzyme; assay type: biochemical
# T1 construct: made in house; host or cells: E. coli
# Excerpt: In this example, a fluorimetric assay procedure was used to evaluate the indole and indole-related compounds of the invention as inhibitors of group 1B phospholipase A2 (PLA2) from human, mouse and porcine. A description of this assay is found in articles: Leslie, C C and Gelb, M H (2004) Methods in Molecular Biology “Assaying phospholipase A2 activity”, 284:229-242; Singer, A G, et al. (2002) Journal of Biological Chemistry “Interfacial kinetic and binding properties of the complete set of human and mouse groups I, II, V, X, and XII secreted phospholipases A2”, 277:48535-48549, which are incorporated herein as references.
# In general, this assay used a phosphatidylmethanol substrate with a pyrene fluorophore on the terminal end of the sn-2 fatty acyl chain. Without being bound by theory, close proximity of the pyrenes from neighboring phospholipids in a phospholipid vesicle caused the spectral properties to change relative to that of monomeric pyrene. Bovine serum albumin was present in the aqueous phase and captured the pyrene fatty acid when it is liberated from the glycerol backbone owing to the PLA2-catalyzed reaction. However, a potent inhibitor can inhibit the liberation of pyrene fatty acid from the glycerol backbone. […] The effect of a given inhibitor and inhibitor concentration on human, mouse and porcine phospholipase was determined.
# Recombinant human and mouse group 1B PLA2 were cloned and expressed in E. coli as insoluble inclusion bodies. The inclusion bodies were isolated and purified by sonicating cell pellet in lysis buffer (50 mM Tris-HCl pH 7.0, 250 mM NaCl, 0.5% Triton 100), centrifugation at 12,000×g, and washing three times in washing buffer (20 mM Tris-HCl pH 7.0, 250 mM NaCl, 0.5% Triton 100). […]
# The following procedure was performed to evaluate the inhibitory potency of the evaluated compounds. • 1. […]
# [2] = Example 9 mouse pharmacokinetic study; assay type: in vivo; settings: serum, PO 30 mg/kg vs IV 3 mg/kg, male CD-1 mice
# Experimental: The plasma exposure of male CD-1 mice to indole and indole-related test articles (TAs) following intravenous (IV, 3 mg/kg) and oral (PO, 30 mg/kg) routes of administration was measured. This model was used to investigate the bioavailability of indole and indole-related TAs in mouse. Mice were selected for the study since they are an accepted species frequently used in pre-clinical evaluation of drugs intended for human use.
# Male CD-1 mice (7-8 weeks old) were obtained from Charles River Laboratories (Wilmington, Mass.). Two groups (N=18 and 27) of male CD-1 mice were used for the study. Upon arrival, the animals were placed on Rodent Diet 5001 (Purina Mills, Inc., St. Louis, Mo.). […]
# All animals were weighed on study day (1) and the body weights were recorded and used for dose calculation. […] Clinical observations were recorded as needed.
# Analysis of serum samples was performed by LC/MS/MS (Waters Quattro Premier, Milford, Mass.). Areas under curves (AUC) were calculated using Graphpad Prism Version 4. Bioavailability was calculated using the following equation: […]
# where AUC0-t=total area under curve at the last measurable time point Based on the serum levels analyzed by LC/MS/MS, the calculated bioavailability of indole and indole-related TAs in CD-1 mice is summarized in Table 4.3.
# [3] = Example 14 toxicology, daily oral gavage for 5 consecutive days; assay type: in vivo; settings: mice
# Excerpt: The purpose of this study was to evaluate the toxicity of indole and indole-related Test Articles when administered daily via oral gavage to mice for 5 consecutive days.
# Assessment of toxicity was based on mortality; clinical signs, body weight, food consumption, clinical pathology, and macroscopic pathology data.
# T1 sequence (Q9Z0Y2 23-146): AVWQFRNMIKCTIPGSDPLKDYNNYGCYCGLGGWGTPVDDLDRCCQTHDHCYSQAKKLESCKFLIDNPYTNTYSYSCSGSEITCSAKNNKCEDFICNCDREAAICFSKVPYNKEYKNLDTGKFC
compound,measurement,setting,value
"Cc1c(C(=O)C(N)=O)c2c(OCC(=O)NS(=O)(=O)CCCC(=O)O)cccc2n1Cc1ccccc1 [ILY-IV-40, 4-[2-(3-Aminooxalyl-1-benzyl-2-methyl-1H-indol-4-yloxy)-acetylsulfamoyl]-butyric acid]",IC50,[1],1360 nM
same,bioavailability,[2],0.5%
same,clinical pathology differences between vehicle control group and treated groups attributable to test article,[3],no differences
